Tests used:
[1] = target: Dual specificity testis-specific protein kinase 1 (Homo sapiens) (UniProt Q15569); settings: Compound concentration 1000.0 nM
[2] = target: Mitogen-activated protein kinase 4 (Homo sapiens) (UniProt P31152); settings: Compound concentration 1000.0 nM
[3] = target: T1, Ephrin type-A receptor 8 (Homo sapiens) (UniProt P29322); settings: Compound concentration 1000.0 nM
T1 sequence (whole entry): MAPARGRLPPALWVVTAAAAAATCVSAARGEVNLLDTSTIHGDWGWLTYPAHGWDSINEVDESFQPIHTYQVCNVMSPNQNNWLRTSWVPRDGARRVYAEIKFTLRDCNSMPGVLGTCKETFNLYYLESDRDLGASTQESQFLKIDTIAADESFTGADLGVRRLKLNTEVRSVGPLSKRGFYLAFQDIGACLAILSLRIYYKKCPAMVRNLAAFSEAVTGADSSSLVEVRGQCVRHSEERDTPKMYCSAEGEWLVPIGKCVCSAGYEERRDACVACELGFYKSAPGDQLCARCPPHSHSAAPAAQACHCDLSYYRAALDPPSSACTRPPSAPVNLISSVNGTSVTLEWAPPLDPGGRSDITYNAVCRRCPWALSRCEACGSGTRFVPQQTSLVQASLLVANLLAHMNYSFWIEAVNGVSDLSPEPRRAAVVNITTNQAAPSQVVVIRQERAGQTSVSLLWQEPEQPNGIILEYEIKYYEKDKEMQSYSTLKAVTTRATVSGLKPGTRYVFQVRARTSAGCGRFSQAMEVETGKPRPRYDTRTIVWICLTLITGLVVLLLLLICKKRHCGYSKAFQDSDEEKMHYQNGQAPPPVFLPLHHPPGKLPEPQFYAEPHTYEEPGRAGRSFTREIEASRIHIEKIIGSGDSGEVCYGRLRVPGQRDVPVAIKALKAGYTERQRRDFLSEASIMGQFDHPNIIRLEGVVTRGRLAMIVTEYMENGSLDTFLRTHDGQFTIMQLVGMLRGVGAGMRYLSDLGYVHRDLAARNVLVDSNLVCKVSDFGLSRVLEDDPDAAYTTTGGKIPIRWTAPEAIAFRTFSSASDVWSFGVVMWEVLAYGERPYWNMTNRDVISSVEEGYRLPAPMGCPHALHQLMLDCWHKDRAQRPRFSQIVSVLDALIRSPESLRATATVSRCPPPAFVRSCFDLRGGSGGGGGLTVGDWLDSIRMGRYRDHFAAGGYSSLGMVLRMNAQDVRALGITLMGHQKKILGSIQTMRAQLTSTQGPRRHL

[4] = target: Mitogen-activated protein kinase kinase kinase 1 (Homo sapiens) (UniProt Q13233); settings: Compound concentration 1000.0 nM
[5] = target: Serine/threonine-protein kinase WNK3 (Homo sapiens) (UniProt Q9BYP7); settings: Compound concentration 1000.0 nM
[6] = target: T2, Tyrosine-protein kinase Tec (Homo sapiens) (UniProt P42680); settings: Compound concentration 1000.0 nM
T2 sequence (whole entry): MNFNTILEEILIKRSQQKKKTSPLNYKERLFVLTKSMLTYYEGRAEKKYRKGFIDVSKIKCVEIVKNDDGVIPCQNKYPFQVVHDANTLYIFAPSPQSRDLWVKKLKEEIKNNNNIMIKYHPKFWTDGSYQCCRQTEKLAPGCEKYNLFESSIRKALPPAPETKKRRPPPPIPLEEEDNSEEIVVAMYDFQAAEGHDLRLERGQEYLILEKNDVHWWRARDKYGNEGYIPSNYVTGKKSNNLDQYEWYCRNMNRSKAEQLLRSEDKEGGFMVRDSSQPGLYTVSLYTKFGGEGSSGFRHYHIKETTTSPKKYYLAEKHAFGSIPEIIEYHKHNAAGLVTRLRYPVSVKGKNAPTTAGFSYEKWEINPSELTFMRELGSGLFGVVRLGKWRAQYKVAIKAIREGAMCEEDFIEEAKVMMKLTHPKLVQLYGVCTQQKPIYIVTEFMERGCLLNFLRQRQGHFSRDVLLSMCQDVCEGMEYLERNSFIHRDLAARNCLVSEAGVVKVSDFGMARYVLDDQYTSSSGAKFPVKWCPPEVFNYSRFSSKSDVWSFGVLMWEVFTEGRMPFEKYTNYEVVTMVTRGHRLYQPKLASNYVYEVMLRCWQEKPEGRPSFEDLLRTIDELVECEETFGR

[7] = target: Serine/threonine-protein kinase Nek5 (Homo sapiens) (UniProt Q6P3R8); settings: Compound concentration 1000.0 nM
Serine/threonine-protein kinase Nek5 (Homo sapiens), sequence (Q6P3R8 whole entry): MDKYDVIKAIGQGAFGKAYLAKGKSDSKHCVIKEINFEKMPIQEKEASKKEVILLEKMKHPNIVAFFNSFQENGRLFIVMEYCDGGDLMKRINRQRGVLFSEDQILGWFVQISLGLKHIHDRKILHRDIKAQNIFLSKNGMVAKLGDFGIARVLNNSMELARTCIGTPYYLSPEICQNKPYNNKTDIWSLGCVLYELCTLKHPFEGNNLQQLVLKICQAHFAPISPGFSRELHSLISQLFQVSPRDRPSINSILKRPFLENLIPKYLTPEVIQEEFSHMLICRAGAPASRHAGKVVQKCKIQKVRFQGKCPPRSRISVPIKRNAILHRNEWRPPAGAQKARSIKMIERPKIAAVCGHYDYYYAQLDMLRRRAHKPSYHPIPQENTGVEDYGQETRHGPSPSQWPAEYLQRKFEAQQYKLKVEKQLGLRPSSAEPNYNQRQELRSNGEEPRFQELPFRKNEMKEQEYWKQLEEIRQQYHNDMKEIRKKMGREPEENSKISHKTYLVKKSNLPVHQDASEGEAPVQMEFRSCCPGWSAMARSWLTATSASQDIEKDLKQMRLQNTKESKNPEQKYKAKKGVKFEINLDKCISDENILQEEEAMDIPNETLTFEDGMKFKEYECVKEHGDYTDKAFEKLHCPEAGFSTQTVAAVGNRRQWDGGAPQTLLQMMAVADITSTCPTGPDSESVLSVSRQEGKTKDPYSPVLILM

[8] = target: T3, Serine/threonine-protein kinase Sgk2 (Homo sapiens) (UniProt Q9HBY8); settings: Compound concentration 1000.0 nM
T3 sequence (whole entry): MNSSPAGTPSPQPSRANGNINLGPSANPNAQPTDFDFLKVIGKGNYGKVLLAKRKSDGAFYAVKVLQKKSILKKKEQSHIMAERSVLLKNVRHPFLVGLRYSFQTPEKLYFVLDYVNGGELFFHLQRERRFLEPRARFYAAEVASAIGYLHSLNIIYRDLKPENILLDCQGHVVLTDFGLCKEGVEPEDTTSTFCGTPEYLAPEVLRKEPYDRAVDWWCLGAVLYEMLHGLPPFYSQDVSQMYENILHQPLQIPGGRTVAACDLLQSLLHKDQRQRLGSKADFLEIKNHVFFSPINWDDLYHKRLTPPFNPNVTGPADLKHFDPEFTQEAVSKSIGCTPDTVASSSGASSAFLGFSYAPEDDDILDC

[9] = target: T4, Serine/threonine-protein kinase Sgk1 (Homo sapiens) (UniProt O00141); settings: Compound concentration 1000.0 nM
T4 sequence (whole entry): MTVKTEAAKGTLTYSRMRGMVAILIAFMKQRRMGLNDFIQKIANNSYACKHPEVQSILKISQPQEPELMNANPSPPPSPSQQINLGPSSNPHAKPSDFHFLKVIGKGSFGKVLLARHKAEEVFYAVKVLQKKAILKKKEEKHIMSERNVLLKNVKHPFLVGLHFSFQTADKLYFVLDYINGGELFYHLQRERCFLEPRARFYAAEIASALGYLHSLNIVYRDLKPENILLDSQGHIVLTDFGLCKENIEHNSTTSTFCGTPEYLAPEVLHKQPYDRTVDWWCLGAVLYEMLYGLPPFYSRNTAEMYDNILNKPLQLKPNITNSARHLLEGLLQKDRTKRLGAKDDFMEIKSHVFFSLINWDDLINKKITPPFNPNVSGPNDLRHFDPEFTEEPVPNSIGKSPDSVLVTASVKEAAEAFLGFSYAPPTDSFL

[10] = tested on: Leucine-rich repeat serine/threonine-protein kinase 2 (Homo sapiens), Q5S007 [G2019S]; settings: Compound concentration 1000.0 nM
Leucine-rich repeat serine/threonine-protein kinase 2 (Homo sapiens), Q5S007 [G2019S], sequence (Q5S007 whole entry G2019S): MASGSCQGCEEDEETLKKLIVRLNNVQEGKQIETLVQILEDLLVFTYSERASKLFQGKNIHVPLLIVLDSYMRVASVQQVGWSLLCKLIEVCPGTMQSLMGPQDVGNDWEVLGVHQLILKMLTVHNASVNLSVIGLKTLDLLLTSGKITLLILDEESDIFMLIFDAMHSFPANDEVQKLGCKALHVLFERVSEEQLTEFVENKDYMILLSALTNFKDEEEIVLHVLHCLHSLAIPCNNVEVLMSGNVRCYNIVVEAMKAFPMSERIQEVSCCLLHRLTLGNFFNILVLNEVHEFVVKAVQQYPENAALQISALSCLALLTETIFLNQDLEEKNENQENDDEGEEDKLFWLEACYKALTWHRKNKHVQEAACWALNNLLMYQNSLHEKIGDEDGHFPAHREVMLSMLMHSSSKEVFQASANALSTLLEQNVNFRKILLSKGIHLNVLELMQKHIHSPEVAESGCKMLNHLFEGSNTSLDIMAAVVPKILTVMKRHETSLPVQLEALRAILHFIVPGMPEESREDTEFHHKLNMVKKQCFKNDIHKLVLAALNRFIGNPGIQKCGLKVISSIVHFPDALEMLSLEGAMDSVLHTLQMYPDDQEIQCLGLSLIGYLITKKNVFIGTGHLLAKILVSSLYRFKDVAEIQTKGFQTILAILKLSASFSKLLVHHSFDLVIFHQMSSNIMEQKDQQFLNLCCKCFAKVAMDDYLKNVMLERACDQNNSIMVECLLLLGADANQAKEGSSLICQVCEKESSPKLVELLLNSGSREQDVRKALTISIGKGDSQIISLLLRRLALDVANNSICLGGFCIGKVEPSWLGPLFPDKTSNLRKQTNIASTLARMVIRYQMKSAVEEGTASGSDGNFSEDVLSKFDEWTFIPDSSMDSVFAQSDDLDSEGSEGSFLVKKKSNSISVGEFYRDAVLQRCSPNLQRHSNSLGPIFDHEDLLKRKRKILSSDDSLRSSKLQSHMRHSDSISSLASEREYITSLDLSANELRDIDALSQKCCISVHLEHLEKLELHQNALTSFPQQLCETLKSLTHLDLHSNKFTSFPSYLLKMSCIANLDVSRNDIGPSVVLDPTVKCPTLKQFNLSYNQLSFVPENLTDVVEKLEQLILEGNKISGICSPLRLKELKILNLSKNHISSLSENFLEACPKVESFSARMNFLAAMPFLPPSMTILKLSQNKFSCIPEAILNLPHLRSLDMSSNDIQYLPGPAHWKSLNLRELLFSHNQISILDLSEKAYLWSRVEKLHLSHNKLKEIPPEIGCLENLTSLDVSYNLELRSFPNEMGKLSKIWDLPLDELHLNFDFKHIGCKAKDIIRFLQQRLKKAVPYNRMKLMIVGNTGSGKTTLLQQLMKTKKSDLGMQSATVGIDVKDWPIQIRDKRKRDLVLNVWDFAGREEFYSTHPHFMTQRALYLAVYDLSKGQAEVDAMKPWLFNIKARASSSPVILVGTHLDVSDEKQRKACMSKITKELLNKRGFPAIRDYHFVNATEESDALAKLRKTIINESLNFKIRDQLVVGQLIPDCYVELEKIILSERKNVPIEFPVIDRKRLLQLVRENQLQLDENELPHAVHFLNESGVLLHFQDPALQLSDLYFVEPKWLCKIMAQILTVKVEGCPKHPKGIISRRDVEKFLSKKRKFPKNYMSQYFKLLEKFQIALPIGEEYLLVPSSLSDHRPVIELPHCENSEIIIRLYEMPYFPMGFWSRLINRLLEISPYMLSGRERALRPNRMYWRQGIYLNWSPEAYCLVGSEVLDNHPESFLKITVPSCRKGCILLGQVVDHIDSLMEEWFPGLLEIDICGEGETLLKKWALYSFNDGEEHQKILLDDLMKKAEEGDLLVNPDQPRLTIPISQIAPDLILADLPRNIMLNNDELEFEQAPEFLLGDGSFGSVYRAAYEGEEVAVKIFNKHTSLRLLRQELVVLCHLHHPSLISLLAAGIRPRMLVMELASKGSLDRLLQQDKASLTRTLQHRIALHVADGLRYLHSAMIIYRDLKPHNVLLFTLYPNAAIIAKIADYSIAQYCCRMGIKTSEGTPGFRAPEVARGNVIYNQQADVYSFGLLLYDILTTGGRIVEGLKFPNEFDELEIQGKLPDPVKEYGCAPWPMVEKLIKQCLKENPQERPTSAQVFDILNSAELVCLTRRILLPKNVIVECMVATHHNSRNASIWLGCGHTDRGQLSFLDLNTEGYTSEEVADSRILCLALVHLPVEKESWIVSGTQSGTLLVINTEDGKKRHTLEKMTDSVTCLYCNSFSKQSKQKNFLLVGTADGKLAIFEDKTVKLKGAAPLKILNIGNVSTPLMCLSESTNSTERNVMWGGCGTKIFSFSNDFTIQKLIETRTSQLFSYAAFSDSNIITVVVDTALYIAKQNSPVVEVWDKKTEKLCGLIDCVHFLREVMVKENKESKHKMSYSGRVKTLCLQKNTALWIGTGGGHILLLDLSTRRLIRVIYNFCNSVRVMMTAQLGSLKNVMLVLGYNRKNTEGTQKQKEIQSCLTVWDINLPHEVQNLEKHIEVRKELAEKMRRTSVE

[11] = target: Receptor-type tyrosine-protein kinase FLT3 (Homo sapiens) (UniProt P36888); settings: Compound concentration 1000.0 nM
[12] = target: Sodium-dependent serotonin transporter (Homo sapiens) (UniProt P31645); settings: Compound concentration 10.0 uM
Sodium-dependent serotonin transporter (Homo sapiens), sequence (P31645 whole entry, looked up): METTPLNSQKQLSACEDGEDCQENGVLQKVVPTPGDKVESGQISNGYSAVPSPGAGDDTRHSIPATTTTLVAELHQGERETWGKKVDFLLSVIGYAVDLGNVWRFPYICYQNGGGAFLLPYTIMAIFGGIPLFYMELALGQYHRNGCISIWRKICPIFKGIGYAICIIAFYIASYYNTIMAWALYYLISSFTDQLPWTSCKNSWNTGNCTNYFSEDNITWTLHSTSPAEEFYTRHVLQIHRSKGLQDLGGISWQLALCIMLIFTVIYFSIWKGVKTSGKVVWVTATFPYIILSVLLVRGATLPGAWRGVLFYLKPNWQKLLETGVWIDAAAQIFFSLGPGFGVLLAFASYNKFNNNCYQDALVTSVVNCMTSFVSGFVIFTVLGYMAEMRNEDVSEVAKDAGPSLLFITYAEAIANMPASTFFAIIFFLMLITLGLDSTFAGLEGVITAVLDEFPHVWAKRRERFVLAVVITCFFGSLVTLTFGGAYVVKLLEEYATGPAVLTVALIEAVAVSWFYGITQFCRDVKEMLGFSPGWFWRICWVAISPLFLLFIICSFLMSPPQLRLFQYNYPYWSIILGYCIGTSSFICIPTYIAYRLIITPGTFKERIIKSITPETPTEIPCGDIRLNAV

Dual specificity testis-specific protein kinase 1 (Homo sapiens), sequence (Q15569 whole entry, looked up): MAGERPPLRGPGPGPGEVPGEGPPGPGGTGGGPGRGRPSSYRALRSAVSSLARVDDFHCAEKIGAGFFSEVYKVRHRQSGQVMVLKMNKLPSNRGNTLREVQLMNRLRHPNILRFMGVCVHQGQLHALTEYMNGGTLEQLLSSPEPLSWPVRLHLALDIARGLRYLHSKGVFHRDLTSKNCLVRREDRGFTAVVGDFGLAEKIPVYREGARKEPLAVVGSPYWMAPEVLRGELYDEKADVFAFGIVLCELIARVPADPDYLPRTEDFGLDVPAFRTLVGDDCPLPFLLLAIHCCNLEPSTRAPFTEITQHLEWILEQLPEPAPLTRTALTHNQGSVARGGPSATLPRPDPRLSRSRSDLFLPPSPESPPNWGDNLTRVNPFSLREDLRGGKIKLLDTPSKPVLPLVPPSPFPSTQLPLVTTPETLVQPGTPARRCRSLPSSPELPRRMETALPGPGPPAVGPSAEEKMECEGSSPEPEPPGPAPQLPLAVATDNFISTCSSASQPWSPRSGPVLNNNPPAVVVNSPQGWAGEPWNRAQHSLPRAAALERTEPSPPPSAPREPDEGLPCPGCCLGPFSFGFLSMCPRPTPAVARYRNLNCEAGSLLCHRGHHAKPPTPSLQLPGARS
Mitogen-activated protein kinase 4 (Homo sapiens), sequence (P31152 whole entry): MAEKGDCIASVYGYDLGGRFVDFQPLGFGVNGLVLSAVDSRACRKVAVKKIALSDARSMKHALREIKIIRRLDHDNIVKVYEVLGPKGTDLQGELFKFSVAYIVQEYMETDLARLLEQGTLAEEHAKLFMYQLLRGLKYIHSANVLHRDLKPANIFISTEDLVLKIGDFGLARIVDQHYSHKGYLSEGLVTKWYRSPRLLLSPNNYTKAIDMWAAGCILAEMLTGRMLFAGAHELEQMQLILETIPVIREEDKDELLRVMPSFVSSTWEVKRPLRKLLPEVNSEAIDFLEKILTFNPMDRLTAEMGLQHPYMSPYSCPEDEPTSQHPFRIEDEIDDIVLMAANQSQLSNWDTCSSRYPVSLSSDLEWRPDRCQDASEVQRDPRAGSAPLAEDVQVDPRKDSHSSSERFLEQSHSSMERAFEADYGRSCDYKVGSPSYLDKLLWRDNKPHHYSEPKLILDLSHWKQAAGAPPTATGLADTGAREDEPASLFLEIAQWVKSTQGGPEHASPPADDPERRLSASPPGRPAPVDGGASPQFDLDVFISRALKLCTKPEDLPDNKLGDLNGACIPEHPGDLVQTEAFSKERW

Row | Compound | residual activity [1] [%] | residual activity [2] [%] | residual activity [3] [%] | residual activity [4] [%] | residual activity [5] [%] | residual activity [6] [%] | residual activity [7] [%] | residual activity [8] [%] | residual activity [9] [%] | residual activity [10] [%] | residual activity [11] [%] | inhibition [12] [%]
1 | CCc1ccccc1C(=O)Nc1n[nH]c2c(C)c(F)c(C3C(C#N)=C(C)N(C)C(C)=C3C#N)cc12 [BAY-3827] | 96 | 96 | 79 | 100 | 90 | 91 | 100 | 100 | 100 | 100 | 16 | -6.24
2 | CC1=C(C#N)C(c2ccc3c(c2)c(NC(=O)c2ccccc2C)nn3C)C(C#N)=C(C)N1 [BAY-974] | 96 | 100 | 100 | 51 | 82 | 100 | 100 | 73 | 89 | 100 | 90 | -6.29
